A short description of series [1]: Toxicity in Balb/c nude mouse xenografted with human MCF7 cells assessed as effect on heart morphology at 2 to 4 mg/kg, ip administered every other day for 20 days by H&E staining based analysis. The series is classed as organism-based. The conditions noted are these: in vivo, 480 h, dose 2-4 mg/kg, time 20 day.
In series [2] the target is T1, Estrogen receptor (Homo sapiens) (UniProt P03372).
T1 sequence (whole entry): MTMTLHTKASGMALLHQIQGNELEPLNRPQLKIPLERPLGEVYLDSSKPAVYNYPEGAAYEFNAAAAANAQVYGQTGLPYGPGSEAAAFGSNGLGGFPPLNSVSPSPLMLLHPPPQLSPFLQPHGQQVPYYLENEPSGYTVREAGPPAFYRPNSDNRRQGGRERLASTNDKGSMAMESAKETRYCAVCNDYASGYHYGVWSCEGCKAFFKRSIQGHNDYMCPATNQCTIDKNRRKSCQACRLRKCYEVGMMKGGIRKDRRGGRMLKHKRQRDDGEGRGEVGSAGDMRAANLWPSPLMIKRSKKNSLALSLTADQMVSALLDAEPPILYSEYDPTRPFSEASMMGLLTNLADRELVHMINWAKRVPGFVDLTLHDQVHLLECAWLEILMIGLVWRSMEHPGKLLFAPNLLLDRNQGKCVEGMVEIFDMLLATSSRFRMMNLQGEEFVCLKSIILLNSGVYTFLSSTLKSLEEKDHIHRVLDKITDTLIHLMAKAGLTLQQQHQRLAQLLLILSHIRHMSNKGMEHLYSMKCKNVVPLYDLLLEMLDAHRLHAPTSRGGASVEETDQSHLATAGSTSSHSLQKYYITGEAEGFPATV
As to the kind of experiment: Binding affinity to human ERalpha assessed as relative binding affinity incubated under vibration for 1 min followed by 2 hrs incubation under dark condition by fluorescence polarization assay relative to estradiol. The conditions noted are these: time 121.0 min.

Series [3] can be described thus: Toxicity in Balb/c nude mouse xenografted with human MCF7 cells assessed as body weight loss at 2 to 4 mg/kg, ip administered every other day for 20 days. The series is classed as organism-based. Conditions: in vivo, 480 h, dose 2-4 mg/kg, time 20 day.
Series [4] deals with T1, Estrogen receptor (Homo sapiens). As to the kind of experiment: Induction of ERalpha degradation in human MCF7 cells at 5 uM incubated for 24 hrs by Western blot analysis relative to SeCN-OBHSA derivatives. In kind it is cell-based.
Series [5] is described as follows: Selectivity index, ratio of IC50 for cytotoxicity against human MCF-10A cells to IC50 for antiproliferative activity against human MCF7 cells. The conditions noted are these: MCF-10A cells and MCF7 cells, read-out: Ratio IC50. In kind it is toxicity, cell-based.
For series [6], the system named is T47D. Description: Antiproliferative activity against ERalpha positive human T47D cells assessed as inhibition of cell proliferation incubated for 72 hrs by CCK8 assay. The series is classed as functional, cell-based.
Series [7] deals with T2, Tubulin (Homo sapiens) (UniProt P68371+Q9H4B7+P0DPH7+P68366+Q13509+Q71U36+P04350+Q3ZCM7+P07437+P68363+Q9BQE3+Q6PEY2+Q13885+Q9BVA1+Q9BUF5). Description: Inhibition of tubulin polymerization (unknown origin) at 30 uM incubated for 60 mins by microplate reader analysis. In kind it is protein-complex assay.
Series [8] concerns the target T2, Tubulin (Homo sapiens). As to the kind of experiment: Disruption of microtubule network in human MCF7 cells assessed as chaotic microtubule network at 2 uM incubated for 48 hrs by DAPI staining based confocal laser scanning microscopic analysis. The series is classed as cell-based.
The subject of series [9] is MCF7. As to the kind of experiment: Antitumor activity against human MCF7 cells xenografted in Balb/c nude mouse assessed as tumor growth inhibition at 2 mg/kg, ip administered every other day for 20 days relative to control. Conditions: MCF7, 480 h, time 20 day, read-out: TGI. The series is classed as functional.
Series [10] deals with T1, Estrogen receptor (Homo sapiens). As to the kind of experiment: Induction of ERalpha degradation in human MCF7 cells at 1 uM incubated for 6 to 24 hrs by Western blot analysis. In kind it is cell-based. Conditions: time 6-24 hrs.
The test system of series [11] is MDA-MB-231. As to the kind of experiment: Antiproliferative activity against ERalpha negative human MDA-MB-231 cells assessed as inhibition of cell proliferation incubated for 72 hrs by CCK8 assay. In kind it is functional, cell-based. The conditions noted are these: MDA-MB-231, 72 h.
The target of series [12] is T1, Estrogen receptor (Homo sapiens). As to the kind of experiment: Induction of ERalpha degradation in human MCF7 cells incubated for 6 to 24 hrs by Western blot analysis. The conditions noted are these: dose 0.5-5 µM, time 6-24 hrs. The series is classed as cell-based.

The source made the active and inactive calls. The calls are words filed in the database; no cut-off is given here.

As to `N#C[Se]CCCCCC(=O)Nc1ccc(C2=C(c3ccc(O)cc3)C3CC(S(=O)(=O)N(CC(F)(F)F)c4ccccc4F)C2O3)cc1` (configuration not stated), the Activity entry in series [1] is “Non-Toxic”; in series [3] it was “Non-Toxic”; in [12] it was “Dose-Dependent Effect”. The RBA in series [2] stood at 8.57%. Also, the result in series [4], in [8] and in [10] was Active. In [5], the selectivity ratio came to 264. Moreover, the figures for the IC50 in [6] and in series [11] were 2.56 µM and 3.75 µM, respectively. The “tubulin polymerization inhibition (active/not active)” value in [7] is “Active”. The inhibition in vivo at 2 mg/kg in series [9] was determined as 74.6%.

The values are drawn from ChEMBL document CHEMBL5360672, “Identification of Novel Dual-Target Estrogen Receptor α Degraders with Tubulin Inhibitory Activity for the Treatment of Endocrine-Resistant Breast Cancer” (J Med Chem, 2023).
